Laboratory results as given in ChEMBL document CHEMBL1155698, “Two new antimicrobial lysoplasmanylinositols from the marine sponge Theonella swinhoei” (2001).
Activity calls are given as the source filed them. No cut-off for these calls is given here.

Columns and labels:
Umbelopsis ramanniana = experiment: Antimicrobial activity against Mortierella ramanniana; type: functional, organism-based
Escherichia coli [1] = experiment: Antimicrobial activity against Escherichia coli by […]; type: functional, organism-based
Escherichia coli [2] = experiment: Antimicrobial activity against Escherichia coli at 50 ug/disk; type: functional; settings: read-out: IZ

Structure (SMILES) | Activity (Umbelopsis ramanniana) | Activity (Escherichia coli [1]) | zone of inhibition at 50 µg/disc (Escherichia coli [2])
CCCCCCC1C(C)C1CCCCCCCOC[C@@H](O)COP(=O)(O)O[C@@H]1[C@@H](O)[C@H](O)[C@@H](O)[C@H](O)[C@@H]1O (some centres undefined) | inactive | Active | –
CCCCCCCC(C)CCCCCCCCOC[C@@H](O)COP(=O)(O)O[C@@H]1[C@@H](O)[C@H](O)[C@@H](O)[C@H](O)[C@@H]1O (some centres undefined) | inactive | – | 12 mm
